Data on eight molecules can be found in patent US20110306573A1, “NUCLEOSIDE DERIVATIVES AS INHIBITORS OF VIRAL POLYMERASES” (priority 2008, published 2011).

T1 sequence (P26663 2420-2955): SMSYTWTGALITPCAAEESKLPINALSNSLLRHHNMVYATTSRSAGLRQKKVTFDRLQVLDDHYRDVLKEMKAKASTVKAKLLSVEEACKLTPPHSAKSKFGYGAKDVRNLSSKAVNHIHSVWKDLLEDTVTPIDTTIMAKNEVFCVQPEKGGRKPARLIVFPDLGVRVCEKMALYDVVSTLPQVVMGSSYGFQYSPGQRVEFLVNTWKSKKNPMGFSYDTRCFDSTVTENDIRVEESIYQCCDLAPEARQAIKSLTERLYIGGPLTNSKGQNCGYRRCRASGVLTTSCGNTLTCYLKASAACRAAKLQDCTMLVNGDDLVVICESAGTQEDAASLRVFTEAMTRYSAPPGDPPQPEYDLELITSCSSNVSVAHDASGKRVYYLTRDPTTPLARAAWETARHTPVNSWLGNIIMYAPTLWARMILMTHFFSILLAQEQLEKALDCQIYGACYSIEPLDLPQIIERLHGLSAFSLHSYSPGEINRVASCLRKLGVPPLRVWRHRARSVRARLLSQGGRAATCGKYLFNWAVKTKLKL

This assay concerns the target T1, HCV NS5B polymerase (Hepatitis C virus genotype 1b, UniProt P26663).
T1 construct: RNA-dependent RNA polymerase (NS5B) of the hepatitis C virus (HCV)
Kind of assay: Assay for inhibition of HCV NS5B polymerase (RdRp, 3H-UTP incorporation on heteromeric RNA template). Format: biochemical. The following applies: heterogeneous template dCoh, 2 nM DC55-lb.BK or 10 nM DC55-2b.2, NTPs 1 uM, room temperature 2 hours. The protocol: The effectiveness of the compounds of the present invention as inhibitors of HCV NS5B RNA-dependent RNA polymerase (RdRp) was measured in the following assay.
This assay was used to measure the ability of the nucleoside derivatives of the present invention to inhibit the enzymatic activity of the RNA-dependent RNA polymerase (NS5B) of the hepatitis C virus (HCV) on a heteromeric RNA template.
Assay Buffer Conditions: (52.5 μL-total/reaction)
20 nM heterogeneous template dCoh
2.5 μl/reaction inhibitor compound in H2O
The compounds were tested at various concentrations up to 100 μM final concentration. Nucleoside derivatives were pipetted into wells of a 96-well plate. The enzyme diluted in the reaction buffer was pipetted into the wells and incubated at room temperature for 10 minutes; then the template dCoh was added and incubated for 10 minutes at room temperature. The reaction was initiated by addition of a mixture of nucleotide triphosphates (NTP's), including the radiolabeled UTP, and allowed to proceed at room temperature for 2 hours. Blank samples were done omitting the dCoh template. The reaction was quenched by addition of 50 ul TCA 20% (trichloroacetic acid)/NaPPi 20 mM and the plates were put in ice for 5 minutes. Then, the mixtures were filtered onto Unifilter GF/B 96-well plates (PerkinElmer), washed with TCA 2.5%. 50 ul/well of scintillator solution (Microscint 20, PerkinElmer) were added and the plates were counted in a scintillator counter.
The percentage of inhibition was calculated according to the following equation:
% Inhibition=[1−(cpm in test reaction−cpm in blank)/(cpm in control reaction−cpm in blank)]×100.
For orientation: IC50 means the midpoint of a concentration-inhibition curve. Low readings indicate higher potency, high ones lower potency. In turn, `C[C@@]1(O)[C@H](O)[C@@H](COP(=O)(O)OP(=O)(O)OP(=O)(O)O)O[C@H]1n1cc(-c2cn[nH]c2)c2c(N)ncnc21` [Compound 15, 7-(2-C-methyl-5-triphospho-β-D-ribofuranosyl)-5-(1H-pyrazol-4-yl)-7H-pyrrolo[2,3-d]pyrimidin-4-amine] returned a 50% inhibitory concentration (IC50) of less than 50 µM. Molecule `C[C@@]1(O)[C@H](O)[C@@H](COP(=O)(O)OP(=O)(O)OP(=O)(O)O)O[C@H]1n1cc(-c2ncon2)c2c(N)ncnc21` [Compound 16, 7-(2-C-methyl-5-triphospho-β-D-ribofuranosyl)-5-(1,2,4-oxadiazol-3-yl)-7H-pyrrolo[2,3-d]pyrimidin-4-amine] yielded a concentration for half-maximal inhibition (IC50) of less than 1 µM. In the case of `Cn1cc(-c2cn([C@@H]3O[C@H](COP(=O)(O)OP(=O)(O)OP(=O)(O)O)[C@@H](O)[C@@]3(C)O)c3ncnc(N)c23)nn1` [Compound 17, 7-(2-C-methyl-5-triphospho-β-D-ribofuranosyl)-5-(1-methyl-1H-1,2,3-triazol-4-yl)-7H-pyrrolo[2,3-d]pyrimidin-4-amine] it was less than 50 µM.

Consider `C[C@@]1(F)[C@H](O)[C@@H](COP(=O)(O)OP(=O)(O)OP(=O)(O)O)O[C@H]1n1cc(-c2ncon2)c2c(N)ncnc21` [Compound 18, 7-(2-deoxy-2-fluoro-2-methyl-5-triphospho-β-D-ribofuranosyl)-5-(1,2,4-oxadiazol-3-yl)-7H-pyrrolo[2,3-d]pyrimidin-4-amine], for which the concentration for half-maximal inhibition (IC50) is less than 1 µM. `C[C@@]1(F)[C@H](O)[C@@H](COP(=O)(O)OP(=O)(O)OP(=O)(O)O)O[C@H]1n1cc(-c2ncco2)c2c(N)ncnc21` [Compound 19, 7-(2-deoxy-2-fluoro-2-methyl-5-triphospho-β-D-ribofuranosyl)-5-(1,3-oxazol-2-yl)-7H-pyrrolo[2,3-d]pyrimidin-4-amine] had a half-maximal inhibitory concentration (IC50) of less than 1 µM. As to `C[C@@]1(F)[C@H](O)[C@@H](COP(=O)(O)OP(=O)(O)OP(=O)(O)O)O[C@H]1n1cc(-c2ccn[nH]2)c2c(N)ncnc21` [Compound 20, 7-(2-deoxy-2-fluoro-2-methyl-5-triphospho-β-D-ribofuranosyl)-5-(1H-pyrazol-5-yl)-7H-pyrrolo[2,3-d]pyrimidin-4-amine], the concentration for half-maximal inhibition (IC50) was less than 1 µM. Regarding `C[C@@]1(O)[C@H](O)[C@@H](COP(=O)(O)OP(=O)(O)OP(=O)(O)O)O[C@H]1n1nc(-c2cc[nH]n2)c2c(N)ncnc21` [Compound 26, 1-[5-O-(hydroxy{[hydroxy(phosphonooxy)phosphoryl]oxy}phosphoryl)-2-C-methyl-b-D-ribofuranosyl]-3-(1H-pyrazol-3-yl)-1H-pyrazolo[3,4-d]pyrimidin-4-amine], the IC50 is less than 50 µM. The same measure for `C[C@@]1(O)[C@H](O)[C@@H](COP(=O)(O)OP(=O)(O)OP(=O)(O)O)O[C@H]1n1cc(-c2nnco2)c2c(N)ncnc21` [Compound 28, 7-(2-C-methyl-5-triphospho-β-D-ribofuranosyl)-5-(1,3,4-oxadiazol-2-yl)-7H-pyrrolo[2,3-d]pyrimidin-4-amine]: less than 50 µM.
